Measurements reported in patent US9399047B2, “Composition and method to alleviate joint pain using phospholipids and roe extract” (U.S. NUTRACEUTICALS, LLC, priority 2009, dated 2016).

How the values were obtained:
[1] = solubility; format: physicochemical
From the text: It is also possible to use a pure diol of the S,S′ astaxanthin, including a synthetic diol with a surfactant and/or the low molecular weight hyaluronic acid. It is possible to use that pure diol in combination with the EPA rich algae based oil or other fish, roe extract, or plant based oil and/or phospholipid and/or surfactant as described above, and which is admixed with either astaxanthin derived from Haematococcus pluvialis or the free diol form in substantially pure S,S′ enantiomer form. It is possible to add synthetically derived mixed enantiomers of the diol. The diol of the S,S′ astaxanthin is possible because in cases of krill oil and possibly algae based oils and Hp derived and other types, there are principally diesters and monoesters respectively with very little diol, which is insoluble. […] It is possible to synthesize asymmetrically the S,S′ pure diol. Despite the pure diol's poor solubility in some examples, there may be an active transport mechanism related to its bioavailability, or conversely, that only in the diol form is the monoester or diester forms transferred from the intestines to the blood. […]

[2] = cited from earlier work
[3] = serum; cited from earlier work
[4] = system: cellular membrane lipid peroxidation; conditions: cited from earlier work
[5] = system: healthy adults; conditions: eight weeks, 6 mg per day; cited from earlier work
[6] = system: inflammatory markers; conditions: astaxanthin 1 mg/kg, cited from earlier work
[7] = cited from earlier work; remark: listed apart in the source
[8] = system: NO, PGE-2 and TNF-Alpha; conditions: induced uveitis; cited from earlier work
[9] = system: C-Reactive Protein (C-RP); conditions: human subjects with high risk levels of C-RP, three months of treatment; cited from earlier work
[10] = system: photo-receptors, ganglion and neuronal cell; conditions: cited from earlier work
[11] = system: rats; conditions: cited from earlier work
[12] = system: lens epithelial cells; conditions: in vitro, umol/L concentrations; cited from earlier work
[13] = 4 mgs/day, compared to untreated subjects; cited from earlier work
[14] = cited from earlier work; remark: listed apart in the source

## CC1=C(/C=C/C(C)=C/C=C/C(C)=C/C=C/C=C(C)/C=C/C=C(C)/C=C/C2=C(C)C(=O)[C@@H](O)CC2(C)C)C(C)(C)C[C@H](O)C1=O [diol of the S,S′ astaxanthin]
[1]
  solubility: insoluble

## CCCCCCCCCCCCCCCC(=O)O[C@H]1CC(C)(C)C(/C=C/C(C)=C/C=C/C(C)=C/C=C/C=C(C)/C=C/C=C(C)/C=C/C2=C(C)C(=O)[C@@H](OC(=O)CCCCCCCCCCCCCCC)CC2(C)C)=C(C)C1=O [(3R,3′R-astaxanthin dipalmitate, reference compound]
[2]; men, astaxanthin fatty acyl diesters (Coral-Hinostroza et al. 2004)
  relative absorption of astaxanthin compared to the other two isomers: higher relative absorption

## CC1=C(/C=C/C(C)=C/C=C/C(C)=C/C=C/C=C(C)/C=C/C=C(C)/C=C/C2=C(C)C(=O)[C@@H](O)CC2(C)C)C(C)(C)C[C@H](O)C1=O [Astaxanthin, 3,3′-dihydroxy-β-β-carotene-4,4′-dione]
[3]
  Cmax: 65 ng/mL
  T1/2: 16 h
  Tmax: 8 h
[4]
  effect on pro-oxidant activity of Vioxx: negate the pro-oxidant activity of Vioxx
[5]
  negative effect of supplementation: no negative effect
[6]; in vitro and in vivo
  down regulates TNF-alpha production: 75%
  down regulates prostaglandin E-2 production (PGE-2): 75%
  inhibits nitric oxide synthase (Nos) expression of nitric oxide: 58%
[6]
  effects on inflammatory markers compared with prednisolone: nearly as effective as prednisolone
[7]; versus Vitamin E
  quenching of singlet oxygen, times more powerful than Vitamin E: about 50 times
[7]; versus lutein
  quenching of singlet oxygen, relative to lutein: three times more powerful
[7]; versus β-carotene
  quenching of singlet oxygen, times more powerful than β-carotene: 11 times
[8]
  ocular anti-inflammatory activity by suppression of NO, PGE-2 and TNF-Alpha: dose dependant ocular anti-inflammatory activity
[9]
  patients whose serum C-RP levels dropped below the risk level: 43%
[10]; direct measurement of retinal astaxanthin concentrations
  crossing of the blood-brain-retina barrier: crosses the blood-brain-retina barrier
[10]; in vivo
  photon induced damage of photo-receptors, ganglion and neuronal cell damage: protection
[11]; rat, in vivo, po
  Oral LD 50: 600 mg/kg
[11]; rats
  NOAEL: 465 mg/kg
[12]
  UVB induced lipid peroxidative mediated cell damage: suppresses
[13]
  post exercise joint fatigue following strenuous knee exercise: prevented post exercise joint fatigue
[14]; versus Vitamin C
  free radical quenching ability, times more powerful than Vitamin C: 65 times
[14]; versus Vitamin E
  free radical quenching ability, times more powerful than Vitamin E: 14 times
[14]; versus lutein
  free radical quenching ability, times more powerful than lutein: 47 times
[14]; versus β-carotene
  free radical quenching ability, times more powerful than β-carotene: 54 times

## CC1=C(/C=C/C(C)=C/C=C/C(C)=C/C=C/C=C(C)/C=C/C=C(C)/C=C/C2=C(C)C(=O)[C@@H](O)CC2(C)C)C(C)(C)C[C@H](O)C1=O [free astaxanthin diol]
[2]; human plasma, feeding studies
  uptake relative to esterified astaxanthin: 4-5 times
